Paper PMC2788963 (Bioorganic & medicinal chemistry letters, 2009)

Biological target: SERT (Rattus norvegicus, UniProt P31652)
Assay type: binding
Conditions: selectivity, ratio of Ki values

Chain of SERT (P31652 whole entry): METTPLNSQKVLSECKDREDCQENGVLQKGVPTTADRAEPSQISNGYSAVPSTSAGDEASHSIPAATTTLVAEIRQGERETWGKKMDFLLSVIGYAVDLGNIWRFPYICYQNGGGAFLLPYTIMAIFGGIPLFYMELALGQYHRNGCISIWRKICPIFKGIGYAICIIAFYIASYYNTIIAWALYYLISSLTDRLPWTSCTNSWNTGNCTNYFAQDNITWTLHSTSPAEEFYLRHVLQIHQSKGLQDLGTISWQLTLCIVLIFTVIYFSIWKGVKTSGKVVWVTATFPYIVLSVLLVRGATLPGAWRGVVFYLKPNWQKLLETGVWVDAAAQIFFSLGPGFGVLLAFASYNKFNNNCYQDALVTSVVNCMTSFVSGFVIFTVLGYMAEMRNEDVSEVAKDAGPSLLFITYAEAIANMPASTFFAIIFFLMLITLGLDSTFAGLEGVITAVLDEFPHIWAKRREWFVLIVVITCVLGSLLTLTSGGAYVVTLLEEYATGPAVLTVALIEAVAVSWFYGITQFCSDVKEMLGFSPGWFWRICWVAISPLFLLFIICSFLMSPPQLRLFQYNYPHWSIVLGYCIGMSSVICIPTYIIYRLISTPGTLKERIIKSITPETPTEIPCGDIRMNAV

For `Clc1ccc(CO[C@@]2(c3ccc(Cl)cc3)C[C@H]3CC[C@@H](C2)N3)cc1` [7f], the NET/SERT was 23,700.
